# Assay results published in patent US9469656B2, “HDAC inhibitors as anti-cancer agents” (The University of Toledo, priority 2014, dated 2016).
# Legend:
# [1] = test system: NCI 60 cell line assay (leukemia, non-small cell lung cancer, colon cancer, CNS cancer, melanoma, ovarian cancer, renal cancer, prostate cancer, and breast …); experiment: NCI 60 cell line assay, cell proliferation inhibition; type: cell-based, human; conditions: for anti-proliferative activity compared with largazole: 5 μM concentration; for inhibition of cell survival compared with largazole: at 5 μM; for inhibitory activity compared with largazole: at lower concentrations (below 5 μM)
# Description: Understanding how these compounds affect cellular HDAC activity is important. Therefore, the biological effects of all these analogues were evaluated. As described in the examples, the analogues JA1-JA6, AA1-AA2, and RF1 were tested in the NCI 60 cell line assay, which includes leukemia, non-small cell lung cancer, colon cancer, CNS cancer, melanoma, ovarian cancer, renal cancer, prostate cancer, and breast cancer cell lines. […] The analogues were tested in the NCI 60 cell line assay using standard assay protocol. The NCI 60 cell line assay includes leukemia, non-small cell lung cancer, colon cancer, CNS cancer, melanoma, ovarian cancer, renal cancer, prostate cancer, and breast cancer cell lines. Results of the cell proliferation inhibition studies at a single dose of 10 μM are shown in FIGS. 16-21, and FIGS. 26-27, and results of the dose response studies for JA1, JA2, and J3 are shown in FIGS. 22-24. FIGS. 26-27 show the results of single dose response evaluations of AA1 and AA2, respectively, in the NCI 60 cell line assay.
# PC-3 = conditions: cited from earlier work
# HDAC isoforms = conditions: cited from earlier work
# LNCaP = conditions: cited from earlier work
Compound,anti-proliferative activity compared with largazole [1],inhibition of cell survival compared with largazole [1],inhibitory activity compared with largazole [1],further results
CCCCCCCC(=O)SCC/C=C/[C@@H]1CC(=O)NCc2cccc(n2)CN(C)CC(=O)N[C@@H](C(C)C)C(=O)O1 [JA3],equivalent to largazole,nearly as effectively as largazole,less inhibitory activity,–
CCCCCCCC(=O)SCC/C=C/[C@@H]1CC(=O)NCc2cccc(n2)-c2cccc(n2)C(=O)N[C@@H](C(C)C)C(=O)O1 [JA2],–,–,–,potency rank among the analogues [1]: most potent analogue; anti-proliferative activity compared to largazole ([1]; at concentrations greater than 0.1 μM): higher anti-proliferative activity compared to largazole
CCCCCCCC(=O)SCC/C=C/[C@@H]1CC(=O)NCCOCCOCC(=O)N[C@@H](C(C)C)C(=O)O1 [JA1],equivalent to largazole,nearly as effectively as largazole,less inhibitory activity,–
CCCCCCCC(=O)SCCC=CC1CC(=O)NCc2nc(cs2)C2=NC(C)(CS2)C(=O)NC(C(C)C)C(=O)O1 (centres unmarked) [C-2 epimer of largazole],–,–,–,inhibition of viability compared with largazole (PC-3): more potent than largazole; inhibitory potency against HDAC isoforms (HDAC isoforms): sub-micromolar; inhibition of viability compared with largazole (LNCaP): more potent than largazole
